# Test results: US20050064021A1, “Medical dressings” (priority 2001, published 2005)
# Tested on: cells
# Experiment: cellular adherence to alginate, cell type not stated
# Format: cell-based
# Settings: lidocaine present with poloxamer
smiles,measurement,value
CCN(CC)CC(=O)Nc1c(C)cccc1C [lidocaine],cellular adherence properties of alginate,"reduce the cellular adherence properties of alginate, for example, still further"
